Measured values from patent US4294972A, “1,2-Disubstituted oxo triazolidine” (Beecham Group Limited, priority 1978, dated 1981).

Experiments:
[1] = tested on: bronchoconstriction induced by an histamine aerosol; test: Herxheimer test: protection of conscious guinea pigs against histamine aerosol induced bronchoconstriction; type: in vivo, guinea pig; conditions: at 10 μg/ml after two minutes, mean of several experiments
Description: 2. The compounds were also examined for their ability to protect conscious guinea pigs against bronchoconstriction induced by an histamine aerosol (Herxheimer test). In these experiments the compounds were administered by aerosol. The results are the mean of several experiments.

[2] = tested on: 5-hydroxytryptamine or histamine induced bronchoconstriction; test: Konzett-Rossler preparation: inhibition of 5-hydroxytryptamine or histamine induced bronchoconstriction, anaesthetised artificially respired guinea pig; type: in vivo; conditions: Cavia porcellus, iv
Description: 1. The compounds were examined for their ability to inhibit 5-hydroxytryptamine or histamine induced bronchoconstriction in the anaesthetised, artificially respired guinea pig (Konzett-Rossler preparation). The compounds were administered intravenously.

Row | Compound | Herxheimer % increase in preconvulsive coughing time [1] | ED50 [2] [µg/kg]
1 | CCCCCCC(C)(O)CCn1c(=O)n(C)c(=O)n1CCCCCCCC(C)=O (stereo not drawn) [Compound 1, 1-(8-oxononyl)-2-(3"-hydroxy-3"-methylnonyl)-4-methyl-1,2,4-triazolidine-3,5-dione] | Active | 2.7
2 | CCCCCC(O)CCn1c(=O)n(C)c(=O)n1CCCCCCCC(C)=O (stereo not drawn) [Compound 8] | 31% | 6.9
3 | CCCCCCC(C)(O)CCn1c(=O)n(C)c(=S)n1CCCCCCCC(C)=O (stereo not drawn) [Compound 9] | 52% | 26.5
